The values below come from patent publication US9255100B2 (BAYER INTELLECTUAL PROPERTY GMBH, priority 2010, dated 2016).

Molecules are shown by their SMILES. Bounds are passed on as bounds.

In this assay the target is T1, N-terminally GST-tagged human full length recombinant Mps-1 kinase (Homo sapiens, UniProt P33981).
T1 construct: N-terminally GST-tagged human full length recombinant Mps-1 kinase; purchased Invitrogen, Karslruhe, Germany PV4071
T1 sequence (P33981 1-857): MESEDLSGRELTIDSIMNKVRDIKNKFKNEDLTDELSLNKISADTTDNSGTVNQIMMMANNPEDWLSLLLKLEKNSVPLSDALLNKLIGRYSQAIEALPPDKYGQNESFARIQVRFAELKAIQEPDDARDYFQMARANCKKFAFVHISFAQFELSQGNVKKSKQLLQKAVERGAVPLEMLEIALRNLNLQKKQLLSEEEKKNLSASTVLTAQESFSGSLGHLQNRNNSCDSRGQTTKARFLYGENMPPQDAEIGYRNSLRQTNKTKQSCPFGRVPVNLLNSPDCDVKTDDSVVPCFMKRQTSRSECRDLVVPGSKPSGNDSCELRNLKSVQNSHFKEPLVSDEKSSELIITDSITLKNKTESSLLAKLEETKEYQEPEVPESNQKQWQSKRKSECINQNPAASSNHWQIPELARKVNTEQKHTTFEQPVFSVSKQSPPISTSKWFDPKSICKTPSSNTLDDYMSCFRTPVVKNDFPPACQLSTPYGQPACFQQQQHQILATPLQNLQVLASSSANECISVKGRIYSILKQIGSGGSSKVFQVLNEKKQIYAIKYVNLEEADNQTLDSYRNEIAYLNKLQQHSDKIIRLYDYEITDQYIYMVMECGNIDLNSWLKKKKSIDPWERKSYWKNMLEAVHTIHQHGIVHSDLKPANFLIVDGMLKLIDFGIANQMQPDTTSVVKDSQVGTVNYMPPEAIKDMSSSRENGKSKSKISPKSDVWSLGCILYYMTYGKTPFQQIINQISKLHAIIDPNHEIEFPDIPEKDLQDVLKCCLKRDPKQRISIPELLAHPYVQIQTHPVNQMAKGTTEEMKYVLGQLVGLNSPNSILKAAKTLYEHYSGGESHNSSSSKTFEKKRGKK
Description: Mps-1 kinase assay (TR-FRET). The following applies: Mps1 IC50 [nM], 10 μM ATP, 1 μM peptide substrate, 60 min at 22° C. It counts as biochemical. Put shortly: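 Next, Eu-labelled anti-phospho(Ser/Thr) antibody and SA-XLent bind for 1 h at 22° C. Finally, energy transfer quantifies phosphorylated product.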
A general note: TR-FRET usually uses a lanthanide donor and a delayed reading to cut background.
For the compound `Cc1cc(-c2cnc3c(NCC(C)(C)O)cc(Oc4ccnn4C)nn23)ccc1C(=O)NC1CC1` [Example 319, N-cyclopropyl-4-{8-[(2-hydroxy-2-methylpropyl)amino]-6-[(1-methyl-1H-pyrazol-5-yl)oxy]imidazo[1,2-b]pyridazin-3-yl}-2-methylbenzamide], the IC50 was 121 nM.

Regarding `Cc1cc(-c2cnc3c(NCC(C)(C)O)cc(Oc4ccc(Cl)cc4)nn23)ccc1C(=O)NC1CC1` [Example 90, 4-{6-(4-Chlorophenoxy)-8-[(2-hydroxy-2-methylpropyl)amino]imidazo[1,2-b]pyridazin-3-yl}-N-cyclopropyl-2-methylbenzamide], the IC50 came out at 0.5 nM.

`Cc1cc(-c2cnc3c(NCCC(F)(F)F)cc(OCC(F)(F)C(F)(F)CO)nn23)ccc1C(=O)NC1CC1` [Example 278A, N-cyclopropyl-2-methyl-4-{6-(2,2,3,3-tetrafluoro-4-hydroxybutoxy)-8-[(3,3,3-trifluoropropyl)amino]imidazo[1,2-b]pyridazin-3-yl}benzamide]: the IC50 was 0.4 nM.

Take `Cc1cc(-c2cnc3c(NCC(C)(C)O)cc(-c4ccc(F)c(CO)c4)nn23)ccc1C(=O)NC1CC1` [Example 165, N-cyclopropyl-4-{6-[4-fluoro-3-(hydroxymethyl)phenyl]-8-[(2-hydroxy-2-methylpropyl)amino]imidazo[1,2-b]pyridazin-3-yl}-2-methylbenzamide]: the IC50 stood at 1.8 nM.

On to `Cc1cc(-c2cnc3c(NCC(O)CO)cc(Oc4cccc(F)c4)nn23)ccc1C(=O)NC1CC1` (stereo not drawn) [Example 491, N-cyclopropyl-4-{8-[(2,3-dihydroxypropyl)amino]-6-(3-fluorophenoxy)imidazo [1,2-b]pyridazin-3-yl}-2-methylbenzamide], for which the IC50 was found to be 0.1 nM.

With `COc1cccc(Nc2cc(NCCC(F)(F)F)c3ncc(-c4ccc(C(=O)NC5CC5)c(C)c4)n3n2)c1C` [Example 426, N-cyclopropyl-4-{6-[(3-methoxy-2-methylphenyl)amino]-8-[(3,3,3-trifluoropropyl)amino]imidazo[1,2-b]pyridazin-3-yl}-2-methylbenzamide], the IC50 was 0.2 nM.

For `Cc1cc(-c2cnc3c(NCC(C)(C)O)cc(-c4ccncc4)nn23)ccc1C(=O)NC1CC1` [Example 230, N-cyclopropyl-4-{8-[(2-hydroxy-2-methylpropyl)amino]-6-(pyridin-4-yl)imidazo[1,2-b]pyridazin-3-yl}-2-methylbenzamide], the IC50 worked out at 2.7 nM.

For `Cc1cc(-c2cnc3c(NCCC(F)(F)F)cc(Oc4cccc(Cl)c4)nn23)ccc1C(=O)NC1CC1` [Example 266, 4-{6-(3-chlorophenoxy)-8-[(3,3,3-trifluoropropyl)amino]imidazo[1,2-b]pyridazin-3-yl}-N-cyclopropyl-2-methylbenzamide], the IC50 turned out to be 0.3 nM.

Consider `COc1ccc(Nc2cc(NCC(C)(C)O)c3ncc(-c4ccc(C(=O)NC5CC5)c(C)c4)n3n2)cn1` [Example 366, N-cyclopropyl-4-{8-[(2-hydroxy-2-methylpropyl)amino]-6-[(6-methoxypyridin-3-yl)-amino]imidazo[1,2-b]pyridazin-3-yl}-2-methylbenzamide], for which the IC50 stood at 1.1 nM.

As to `Cc1cc(-c2cnc3c(NCCN4CCCC4)cc(Oc4cccc(F)c4)nn23)ccc1C(=O)NC1CC1` [Example 502, N-cyclopropyl-4-[6-(3-fluoro-phenoxy)-8-{[2-(pyrrolidin-1-yl)ethyl]amino}imidazo[1,2-b]pyridazin-3-yl]-2-methyl-benzamide], the IC50 came to 0.2 nM.

`Cc1cc(-c2cnc3c(NCC(C)(C)O)cc(Oc4cccnc4)nn23)ccc1C(=O)NC1CC1` [Example 173, N-cyclopropyl-4-{8-[(2-hydroxy-2-methylpropyl)amino]-6-(pyridin-3-yloxy)imidazo[1,2-b]pyridazin-3-yl}-2-methylbenzamide]: the 50% inhibitory concentration (IC50) was determined as 0.4 nM.

As for `COc1ccc(C)c(Nc2cc(NCC(C)(C)O)c3ncc(-c4ccc(C(=O)NC5CC5)c(C)c4)n3n2)c1` [Example 349, N-cyclopropyl-4-{8-[(2-hydroxy-2-methylpropyl)amino]-6-[(5-methoxy-2-methylphenyl)amino]imidazo[1,2-b]pyridazin-3-yl}-2-methylbenzamide], the IC50 was found to be 0.4 nM.

Turning to `Cc1cc(-c2cnc3c(NCCC(F)(F)F)cc(Nc4ccc(Cl)c(F)c4)nn23)ccc1C(=O)NC1CC1` [Example 372, 4-{6-[(4-chloro-3-fluorophenyl)amino]-8-[(3,3,3-trifluoropropyl)amino]imidazo[1,2-b]pyridazin-3-yl}-N-cyclopropyl-2-methylbenzamide], the IC50 came to 0.2 nM.

With `Cc1cc(-c2cnc3c(NCCC(F)(F)F)cc(Nc4cccc(F)c4)nn23)ccc1C(=O)NC1CC1` [Example 324, N-cyclopropyl-4-{6-[(3-fluorophenyl)amino]-8-[(3,3,3-trifluoropropyl)amino]imidazo[1,2-b]pyridazin-3-yl}-2-methyl-benzamide], the IC50 came out at 0.3 nM.

For the compound `Cc1cc(-c2cnc3c(NCC4(C)CCCO4)cc(-c4ccncc4)nn23)ccc1C(=O)NC1CC1` (racemic) [Example 30, (RS)—N-cyclopropyl-2-methyl-4-[8-{[(2-methyltetrahydrofuran-2-yl)methyl]amino}-6-(pyridin-4-yl)imidazo[1,2-b]pyridazin-3-yl]benzamide], the IC50 was 2.1 nM.

With `Cc1cc(-c2cnc3c(NCC4CN(C)CCO4)cc(-c4ccc(F)cc4)nn23)ccc1C(=O)NC1CC1` (racemic) [Example 229, (RS)—N-cyclopropyl-4-[6-(4-fluorophenyl)-8-{[(4-methylmorpholin-2-yl)methyl]amino}imidazo[1,2-b]pyridazin-3-yl]-2-methylbenzamide], the IC50 was found to be 2.6 nM.

`Cc1cc(-c2cnc3c(NCC(C)(C)O)cc(-c4cccnc4)nn23)ccc1C(=O)NC1CC1` [Example 156, N-cyclopropyl-4-{8-[(2-hydroxy-2-methylpropyl)amino]-6-(pyridin-3-yl)imidazo[1,2-b]pyridazin-3-yl}-2-methylbenzamide]: the IC50 came to 5.1 nM.

For the compound `Cc1cc(-c2cnc3c(NCCC(F)(F)F)cc(Cc4cccc(Br)c4)nn23)ccc1C(=O)NC1CC1` [Example 485, 4-{6-(3-bromobenzyl)-8-[(3,3,3-trifluoropropyl)amino]imidazo [1,2-b]pyridazin-3-yl}-N-cyclo-propyl-2-methylbenzamide], the IC50 amounted to 0.4 nM.

On to `O=C(NC1CC1)c1ccc(-c2cnc3c(NCCC(F)(F)F)cc(Sc4ccccc4)nn23)c(O)c1` [Example 74, N-cyclopropyl-3-hydroxy-4-{6-(phenylsulfanyl)-8-[(3,3,3-trifluoropropyl)amino]imidazo[1,2-b]pyridazin-3-yl}benzamide], for which the IC50 is under 0.7 nM.

`COc1ccccc1Sc1cc(NCCC(F)(F)F)c2ncc(-c3ccc(C(=O)NC4CC4)c(C)c3)n2n1` [Example 55, N-cyclopropyl-4-{6-[(2-methoxyphenyl)sulfanyl]-8-[(3,3,3-trifluoropropyl)amino]imidazo[1,2-b]pyridazin-3-yl}-2-methylbenzamide]: the IC50 amounted to 1.2 nM.

On to `CC(C)(O)CNc1cc(-c2ccncc2)nn2c(-c3ccc(-c4cnc(C5CC5)[nH]4)cc3)cnc12` [Example 9, 1-({3-[4-(2-Cyclopropyl-1H-imidazol-5-yl)phenyl]-6-(pyridin-4-yl)imidazo[1,2-b]pyridazin-8-yl}amino)-2-methylpropan-2-ol], for which the IC50 amounted to 25 nM.

For the compound `Cc1cc(-c2cnc3c(NCCC(F)(F)F)cc(Nc4cccc(Cl)c4)nn23)ccc1C(=O)NC1CC1` [Example 379, 4-{6-[(3-chlorophenyl)amino]-8-[(3,3,3-trifluoropropyl)amino]imidazo[1,2-b]pyridazin-3-yl}-N-cyclopropyl-2-methylbenzamide], the IC50 was found to be 0.2 nM.

As to `Cc1cc(-c2cnc3c(NCC(C)(C)O)cc(Sc4cccc(C(C)C)c4)nn23)ccc1C(=O)NC1CC1` [Example 273, N-cyclopropyl-4-{8-[(2-hydroxy-2-methylpropyl)amino]-6-[(3-isopropylphenyl)sulfanyl]imidazo[1,2-b]pyridazin-3-yl}-2-methylbenzamide], the IC50 came to 0.5 nM.

Turning to `Cc1cc(-c2cnc3c(NCC4CCSCC4)cc(Oc4cccc(F)c4F)nn23)ccc1C(=O)NC1CC1` [Example 293, N-cyclopropyl-4-{6-(2,3-difluorophenoxy)-8-[(tetrahydro-2H-thiopyran-4-ylmethyl)amino]imidazo[1,2-b]pyridazin-3-yl}-2-methylbenzamide], the IC50 was 0.4 nM.

Broadly, the IC50 is the concentration that gives 50% inhibition.
